# ChEMBL document CHEMBL4619745, “Identification of 2-((2,3-dihydrobenzo[b][1,4]dioxin-6-yl)amino)-N-phenylpropanamides as a novel class of potent DprE1 inhibitors” (Bioorg Med Chem Lett, 2020)
# How the values were obtained:
# [1] = system: Mycobacterium tuberculosis; assay: Ratio of MIC for Mycobacterium tuberculosis H37Rv overexpressing DprE1 to MIC for Mycobacterium tuberculosis H37Rv; assay type: functional
# [2] = system: Mycobacterium tuberculosis; assay: Antimycobacterial activity against Mycobacterium tuberculosis H37Rv overexpressing DprE1; assay type: functional
smiles,measurement,setting,value
CC(Nc1ccc2c(c1)OCCO2)C(=O)Nc1ccc(Br)cc1 (racemic),Ratio,[1],8
same,MIC,[2],62.5 µM
